System: 997726-040-R-J2-PDC tumor spheroids, viability
Assay: Anticancer human tumor 997726-040-R-J2-PDC patient-derived squamous cell lung carcinoma cell line growth inhibition [PI3K]
Conditions: spheroids with HUVEC and MSC; for IC50: curve of first compound; for viability, T/C: stronger effect = lower value
Outline: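 Complex 3D spheroids (cancer cells + endothelial HUVEC + mesenchymal stem cells); drug pairs of targeted agent x inavolisib/alpelisib/duvelisib/copanlisib; half-log series from ~Cmax, max 10 microM if Cmax unknown; endpoint viability.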

[1] = second compound 0.0316 µM, first compound 0.0316 µM
[2] = second compound 0.0316 µM, first compound 0.1 µM
[3] = second compound 0.0316 µM, first compound 0.316 µM
[4] = second compound 0.0316 µM, first compound 1 µM
[5] = second compound 0.0316 µM, first compound 3.16 µM
[6] = second compound 0.0316 µM, first compound 10 µM
[7] = second compound 0.1 µM, first compound 0.0316 µM
[8] = second compound 0.1 µM, first compound 0.1 µM
[9] = second compound 0.1 µM, first compound 0.316 µM
[10] = second compound 0.1 µM, first compound 1 µM
[11] = second compound 0.1 µM, first compound 3.16 µM
[12] = second compound 0.1 µM, first compound 10 µM
[13] = second compound 0.316 µM, first compound 0.0316 µM
[14] = second compound 0.316 µM, first compound 0.1 µM
[15] = second compound 0.316 µM, first compound 0.316 µM
[16] = second compound 0.316 µM, first compound 1 µM
[17] = second compound 0.316 µM, first compound 3.16 µM
[18] = second compound 0.316 µM, first compound 10 µM
[19] = second compound 1 µM, first compound 0.0316 µM
[20] = second compound 1 µM, first compound 0.1 µM
[21] = second compound 1 µM, first compound 0.316 µM
[22] = second compound 1 µM, first compound 1 µM
[23] = second compound 1 µM, first compound 3.16 µM
[24] = second compound 1 µM, first compound 10 µM
[25] = second compound 3.16 µM, first compound 0.0316 µM
[26] = second compound 3.16 µM, first compound 0.1 µM
[27] = second compound 3.16 µM, first compound 0.316 µM
[28] = second compound 3.16 µM, first compound 1 µM
[29] = second compound 3.16 µM, first compound 3.16 µM
[30] = second compound 3.16 µM, first compound 10 µM
[31] = second compound 10 µM, first compound 0.0316 µM
[32] = second compound 10 µM, first compound 0.1 µM
[33] = second compound 10 µM, first compound 0.316 µM
[34] = second compound 10 µM, first compound 1 µM
[35] = second compound 10 µM, first compound 3.16 µM
[36] = second compound 10 µM, first compound 10 µM
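Further: spheroids exposed to compounds for seven days before readout.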

## C[C@@H](NC(=O)c1ncnc(N)c1Cl)c1ncc(C(=O)Nc2cc(C(F)(F)F)c(Cl)cn2)s1 + CC(Nc1ncnc2nc[nH]c12)c1cc2cccc(Cl)c2c(=O)n1-c1ccccc1
Second compound 0.0316 µM
  IC50: > 10 µM
Second compound 0.1 µM
  IC50: > 10 µM
Second compound 0.316 µM
  IC50: > 10 µM
Second compound 1 µM
  IC50: > 10 µM
Second compound 3.16 µM
  IC50: > 10 µM
Second compound 10 µM
  IC50: 4.74 µM
[1]
  viability, T/C: 123%
[2]
  viability, T/C: 112%
[3]
  viability, T/C: 113%
[4]
  viability, T/C: 120%
[5]
  viability, T/C: 97.2%
[6]
  viability, T/C: 84.1%
[7]
  viability, T/C: 108%
[8]
  viability, T/C: 129%
[9]
  viability, T/C: 118%
[10]
  viability, T/C: 118%
[11]
  viability, T/C: 103%
[12]
  viability, T/C: 68.7%
[13]
  viability, T/C: 114%
[14]
  viability, T/C: 114%
[15]
  viability, T/C: 128%
[16]
  viability, T/C: 119%
[17]
  viability, T/C: 96.8%
[18]
  viability, T/C: 70.1%
[19]
  viability, T/C: 114%
[20]
  viability, T/C: 102%
[21]
  viability, T/C: 108%
[22]
  viability, T/C: 113%
[23]
  viability, T/C: 91.5%
[24]
  viability, T/C: 72.8%
[25]
  viability, T/C: 97%
[26]
  viability, T/C: 90.9%
[27]
  viability, T/C: 83.8%
[28]
  viability, T/C: 79.2%
[29]
  viability, T/C: 79.5%
[30]
  viability, T/C: 61.5%
[31]
  viability, T/C: 61.4%
[32]
  viability, T/C: 62.4%
[33]
  viability, T/C: 60.2%
[34]
  viability, T/C: 59.5%
[35]
  viability, T/C: 52.3%
[36]
  viability, T/C: 43.9%

## CCCS(=O)(=O)Nc1ccc(F)c(C(=O)c2c[nH]c3ncc(-c4ccc(Cl)cc4)cc23)c1F + Cc1nc(NC(=O)N2CCCC2C(N)=O)sc1-c1ccnc(C(C)(C)C(F)(F)F)c1
Second compound 0.0316 µM
  IC50: 6.89 µM
Second compound 0.1 µM
  IC50: 6 µM
Second compound 0.316 µM
  IC50: 4.66 µM
Second compound 1 µM
  IC50: 0.0316 µM
Second compound 3.16 µM
  IC50: < 0.0316 µM
Second compound 10 µM
  IC50: < 0.0316 µM
[1]
  viability, T/C: 88.6%
[2]
  viability, T/C: 93.5%
[3]
  viability, T/C: 103%
[4]
  viability, T/C: 122%
[5]
  viability, T/C: 103%
[6]
  viability, T/C: 25%
[7]
  viability, T/C: 76.4%
[8]
  viability, T/C: 80.5%
[9]
  viability, T/C: 80.5%
[10]
  viability, T/C: 95.7%
[11]
  viability, T/C: 88.4%
[12]
  viability, T/C: 22.6%
[13]
  viability, T/C: 55.6%
[14]
  viability, T/C: 62.3%
[15]
  viability, T/C: 69.8%
[16]
  viability, T/C: 63.7%
[17]
  viability, T/C: 66.9%
[18]
  viability, T/C: 23.3%
[19]
  viability, T/C: 41.9%
[20]
  viability, T/C: 40.5%
[21]
  viability, T/C: 48.3%
[22]
  viability, T/C: 57.1%
[23]
  viability, T/C: 52%
[24]
  viability, T/C: 18.1%
[25]
  viability, T/C: 29.2%
[26]
  viability, T/C: 31.4%
[27]
  viability, T/C: 31.7%
[28]
  viability, T/C: 34.7%
[29]
  viability, T/C: 31.1%
[30]
  viability, T/C: 17.9%
[31]
  viability, T/C: 16.4%
[32]
  viability, T/C: 16.9%
[33]
  viability, T/C: 13.8%
[34]
  viability, T/C: 17.1%
[35]
  viability, T/C: 11.9%
[36]
  viability, T/C: 7.69%

## CC1(C)CCC(Nc2ncc(C(F)(F)F)c(-c3c[nH]c4c(P(C)(C)=O)c(C#N)ccc34)n2)CN1 (stereo unspecified) + COc1c(OCCCN2CCOCC2)ccc2c3n(c(=NC(=O)c4cnc(N)nc4)nc12)CCN3
Second compound 0.00316 µM
  IC50: < 0.0316 µM
Second compound 0.01 µM
  IC50: < 0.0316 µM
Second compound 0.0316 µM
  IC50: < 0.0316 µM
Second compound 0.1 µM
  IC50: < 0.0316 µM
Second compound 0.316 µM
  IC50: < 0.0316 µM
Second compound 1 µM
  IC50: < 0.0316 µM
Second compound 0.00316 µM, first compound 0.0316 µM
  viability, T/C: 36.8%
Second compound 0.00316 µM, first compound 0.1 µM
  viability, T/C: 34.2%
Second compound 0.00316 µM, first compound 0.316 µM
  viability, T/C: 40.7%
Second compound 0.00316 µM, first compound 1 µM
  viability, T/C: 34.8%
Second compound 0.00316 µM, first compound 3.16 µM
  viability, T/C: 39.8%
Second compound 0.00316 µM, first compound 10 µM
  viability, T/C: 16.6%
Second compound 0.01 µM, first compound 0.0316 µM
  viability, T/C: 27%
Second compound 0.01 µM, first compound 0.1 µM
  viability, T/C: 28.9%
Second compound 0.01 µM, first compound 0.316 µM
  viability, T/C: 29.9%
Second compound 0.01 µM, first compound 1 µM
  viability, T/C: 30.5%
Second compound 0.01 µM, first compound 3.16 µM
  viability, T/C: 33.6%
Second compound 0.01 µM, first compound 10 µM
  viability, T/C: 12.6%
[1]
  viability, T/C: 21.4%
[2]
  viability, T/C: 17.6%
[3]
  viability, T/C: 18.2%
[4]
  viability, T/C: 24.8%
[5]
  viability, T/C: 23.9%
[6]
  viability, T/C: 7.84%
[7]
  viability, T/C: 13.5%
[8]
  viability, T/C: 12.1%
[9]
  viability, T/C: 13.2%
[10]
  viability, T/C: 13.9%
[11]
  viability, T/C: 15%
[12]
  viability, T/C: 2.98%
[13]
  viability, T/C: 3.97%
[14]
  viability, T/C: 3.68%
[15]
  viability, T/C: 3.96%
[16]
  viability, T/C: 5.01%
[17]
  viability, T/C: 4.34%
[18]
  viability, T/C: 0.66%
[19]
  viability, T/C: 0.85%
[20]
  viability, T/C: 0.74%
[21]
  viability, T/C: 0.9%
[22]
  viability, T/C: 0.76%
[23]
  viability, T/C: 0.9%
[24]
  viability, T/C: 0.33%

Reference: PubChem BioAssay AID1963964 (Molecular Pharmacology Branch, DTP, NCI, 2024)
